Here are results for three molecules from patent publication US6069150A, “Use of derivatives of tetrahydro-beta-carbolines as antimetastatic agents” (F. Hoffman-La Roche AG, priority 1996, dated 2000).

Structures are written as SMILES. pIC50: −log10 of the molar value. Where two headings read alike, the source gives them in different places.

In assay [1] the target is T1, MMP8 (human neutrophil collagenase) (Homo sapiens, UniProt P22894).
T1 construct: by means of the catalytic domain of MMP8
The assay can be described thus: in vitro test of inhibition of MMP8 (human neutrophil collagenase), fluorescent substrate degradation by catalytic domain of MMP8. The class given is biochemical. As to conditions: for IC50: MMP8 catalytic domain, DNP-substrate, fluorescence at 346 nm, read-out: IC50 (converted); for inhibition at 0.1 µg/mL: conc. 0.1 μg/ml. The source says:
The compounds of the present invention have been tested in a pharmacological "in vitro" test of inhibition of MMP8 (human neutrophil collagenase). Said test provides for the determination via fluorescence of the inhibition of the degradation of a fluorescent substrate (DNP-Pro-Leu-Gly-Leu-Trp-Ala-D-Arg-NH2, M1855 Bachem) by means of the catalytic domain of MMP8.
1) DNP-substrate=DNP-Pro-Leu-Gly-Leu-Trp-Ala-D-Arg-NH2 (M1855 Bachem), M.W. 977.1 g/mol, concentration 25 (μM in DMSO; 2) measurement buffer=50 mM TRIS/100 mM NaCl/10 mM CaCl2.2H2 O, adjusted at pH 7.6 with hydrochloric acid. 3) Enzyme=catalytic domain of MMP8 (92 Kda), concentration 0.055 mg/ml in TRIS buffer. Substrate and enzyme are maintained at 0° C. with ice bath.
Total volume=1 ml of solution kept under stirring in a cuvette.
0.01 ml of inhibitor (10 (g/ml).
It is measured the fluorescence at 346 nm both of the control solution (without inhibitor) and of the solution containing the inhibitor. The inhibition of the catalytic activity of MMP8 results in the decrease in the DNP-substrate lysis, with related decrease in the fluorescence of the solution.
The percentage of inhibition is expressed by the following formula:
% Inhibition=100-(rel. unit/timewith inhibitor /rel.
By repeating the experiment at different concentrations of inhibitor it is possible to determine the IC50 value.

The subject of assay [2] is human fibrosarcoma HT1080 cells. The assay can be described thus: test of chemoinvasion (HT1080 cells through Type IV collagen coated Transwell filters). Type of assay: cell-based. The protocol:
The compounds of the present invention have also shown activity in an "[…]" test of chemoinvasion. In the test of chemoinvasion the Costar Transwell chambers for cell culture (diameter: 6.5 mm; pore size: 8 μm) are coated with 100 μl of Type IV collagen (diluted solution 50 μg/ml, then evaporation overnight). With the same procedure the chambers are coated with a second layer of Type IV collagen (100 μl of solution at concentration 50 μg/ml). Before use, the chambers are rinsed twice with sterile water and incubated for about 1 hour at 37° C. in a serum-free medium (DMEM).
The human fibrosarcoma HT1080 cells are harvested by trypsin-EDTA treatment, washed with DMEM+10% FCS and incubated for at least 30 minutes at 37° C. in the same medium. The cells are then washed with serum-free DMEM and resuspended in serum-free DMEM added with 0.1% BSA (fraction V), counted and diluted to obtain a final density of 3×10^5 cell/ml. […]
Incubated filters are then washed with PBS, the cells are fixed 15 min in 4% paraformaldehyde, permeabilized in methanol (10 minutes, -20° C.) and stained with May-Grunwald-Giemsa. Cells which adhere to the top of the filters are removed with a cotton swab, filters are detached from the bottom of the chambers and analyzed with microscope to determine the number of cells on the lower side of the filters. […]

T1 sequence (P22894 100-262 limits assumed): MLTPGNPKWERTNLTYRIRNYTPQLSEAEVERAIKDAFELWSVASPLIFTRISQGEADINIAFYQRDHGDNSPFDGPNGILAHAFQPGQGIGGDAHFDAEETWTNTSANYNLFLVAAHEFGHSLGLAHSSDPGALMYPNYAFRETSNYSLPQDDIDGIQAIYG

Regarding `COc1ccc2[nH]c3c(c2c1)CCNC3C(=O)O` (centres unmarked) [6-methoxy-1,2,3,4-tetrahydronorharman-1-carboxylic acid], the IC50 in assay [1] was 203 nM. The molecule also had an inhibition at 10 µg/mL in assay [1] (conc. 10 μg/ml) of 100%. Besides, the pIC50 in assay [2] (HT-1080, 24 h + 24 h) is 6.70. Also, in assay [2] (HT-1080, conc. 10^-7 M, 24 h + 24 h), the inhibition at 0.1 µM was 56.5%.

For the molecule `COc1ccc2[nH]c3c(c2c1)CCNC3` [6-methoxy-1,2,3,4-tetrahydronorharmane], in assay [1], the pIC50 is 6.53 and the inhibition at 0.1 µg/mL came out at 100%.

`O=C(O)C1Cc2c([nH]c3ccccc23)CN1` (centres unmarked) [1,2,3,4-tetrahydronorharman-3-carboxylic acid]: in assay [1], the IC50 is 324 nM and the inhibition at 0.1 µg/mL is 100%.
